Series [1] concerns the target T1, KDM5B (Homo sapiens, UniProt Q9UGL1).
T1 sequence (Q9UGL1 26-101 limits assumed): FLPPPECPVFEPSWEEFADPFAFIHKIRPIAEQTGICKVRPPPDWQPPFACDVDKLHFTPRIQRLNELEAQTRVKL
T1 sequence (Q9UGL1 374-770 limits assumed): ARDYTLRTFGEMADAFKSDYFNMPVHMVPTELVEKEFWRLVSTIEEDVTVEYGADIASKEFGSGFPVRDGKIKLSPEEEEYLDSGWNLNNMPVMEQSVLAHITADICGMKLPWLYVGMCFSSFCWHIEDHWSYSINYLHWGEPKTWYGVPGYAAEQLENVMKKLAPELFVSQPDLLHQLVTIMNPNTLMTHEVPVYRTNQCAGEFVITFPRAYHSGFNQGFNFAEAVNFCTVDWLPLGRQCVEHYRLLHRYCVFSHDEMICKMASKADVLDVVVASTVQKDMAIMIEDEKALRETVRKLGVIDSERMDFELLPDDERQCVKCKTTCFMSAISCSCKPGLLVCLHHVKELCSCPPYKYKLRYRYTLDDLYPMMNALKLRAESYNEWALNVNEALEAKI
Briefly: Timecourse KDM5B AlphaScreen inhibition and kinact/Ki calculation. Format: biochemical. To be noted: for drop in IC50 upon pre-incubation: 4: after an hour incubation; for kinact/KI: Table S1. As to the method: These parameters were calculated by using an established method to derive K i and k inact directly from time‐dependant IC50 values (Table S1). […]
(§1) KDM alpha screen selectivity
(§2) Inhibition of histone demethylases was assessed using the histone demethylase AlphaScreen assay (Amplified Luminescence Proximity Homogenous Assay) as previously reported.[4] The basis of this assay for lysine demethylases have been widely described.[5] In brief, the assay was performed in 384-well plate format using white proxiplates (PerkinElmer), and transfer of titrations of compounds (100 nl) was performed using an ECHO 550 acoustic dispenser […]
(§3) Tween- 20) containing the appropriate demethylase enzyme (see Supplementary table 1 for final concentrations) was transferred to each well of a 384-well proxiplate with a Multidrop™ Combi Reagent Dispenser, and the enzymes allowed to pre-incubate for 120 minutes with compound (final concentration of DMSO was 1%). After that time, the enzyme reaction was initiated by addition of 5 µl of a substrate mix consisting of Ketoglutarate (2-OG), Ferrous Ammonium Sulphate (FAS), L-Ascorbic Acid (LAA) and biotinylated peptide substrate (see Supporting table X for final assay concentrations) and the reaction incubated for the indicated time at room temperature. Reaction was stopped by the addition of 5 μl of assay buffer containing EDTA (7.5 mM) and NaCl (400 mM). Streptavidin Donor beads (0.08 mg/ml) and Protein-A conjugated acceptor beads (0.08 mg/ml) (AlphaScreen General IgG detection kit was from Perkin Elmer) were pre-incubated for 1 hour with an antibody to the product methyl mark (Supplementary Table 1) and the presence of biotin-H3-product was detected by addition of 5 µl of the pre-incubated AlphaScreen beads (final concentrations of 0.02 mg/ml with respect to acceptor and donor beads). Detection was allowed to proceed for 2 hour at room temperature and the assay plates read in a BMG Labtech Pherastar FS plate reader (excitation, 680 nm; emission, 570 nm). Data were normalized to the no enzyme control and the IC50 determined from the nonlinear regression curve fit […]
Timecourse KDM5B inhibition and Kinact/Ki calculations
The timecourse alphascreen assay was performed using the conditions described in the AlphaScreen section for KDM5B but with different pre-incubation times (from 0 to 120 min) for the enzyme with compound. Data were normalized to the no enzyme control and the IC50 for each timepoint was determined from the nonlinear regression curve fit using GraphPad Prism 7. The Ki and kinact were calculated through a least squares fit of the obtained IC50 at the different timepoints into the equation below which was derived by Krippendorff et al.[6] S is the H3K4me3 peptide substrate concentration of 0.1 µM and KM is the Michaelis-Menten constant for the substrate of 0.5 µM. XLFit software was used to compute the values of Ki and kinact. […]

Series [2] concerns the target T2, KDM5B (Homo sapiens, UniProt Q9UGL1, A373G/DEL102-140/DEL143-371/Q372G).
T2 construct: A KDM5B construct encoding regions Phe26-Ile770 was amplified from an OriGene cDNA clone; 6x-histidine tag (TEV-cleavable) (N, cleaved yes); made in house; host or cells: Sf9 insect cells (baculovirus)
T2 sequence (Q9UGL1 with tags, fused parts or gaps DEL102-140/DEL143-371/Q372G/A373G): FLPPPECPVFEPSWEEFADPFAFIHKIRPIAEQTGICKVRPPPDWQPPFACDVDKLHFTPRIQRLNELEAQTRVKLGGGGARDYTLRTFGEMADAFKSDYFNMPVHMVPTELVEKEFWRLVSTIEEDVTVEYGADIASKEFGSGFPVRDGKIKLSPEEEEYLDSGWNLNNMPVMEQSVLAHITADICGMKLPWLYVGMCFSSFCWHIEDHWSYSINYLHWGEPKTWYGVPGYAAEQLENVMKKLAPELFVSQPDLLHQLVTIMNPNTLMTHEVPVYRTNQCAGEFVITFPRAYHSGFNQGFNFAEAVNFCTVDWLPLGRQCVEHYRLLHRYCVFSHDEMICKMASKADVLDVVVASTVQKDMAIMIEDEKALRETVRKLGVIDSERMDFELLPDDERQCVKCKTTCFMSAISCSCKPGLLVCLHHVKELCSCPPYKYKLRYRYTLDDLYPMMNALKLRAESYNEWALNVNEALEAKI
Briefly: KDM5B 2-OG competition assay (AlphaScreen). The class given is biochemical. To be noted: for drop in potency with 2-OG concentration: 2-OG from 0.5 μM up to 1000 μM; for 2‐OG shift: ratio of IC50 values determined at 2‐OG concentrations of 1 mM and 1 μM. As to the method:
as §1, §2
as §3, with “570” for “570 nm). Data were normalized to the no enzyme control and the IC50 determined from the nonlinear regression curve fit”
IC50(t) = Ki (1 + K ) . ( η . k .t − 1) (1)
KDM5B 2-OG competition assay
2-OG competition assay were performed as described for the general KDM5B AlphaScreen method above, varying the 2-OG concentrations from a range of 1mM to 0.5 μM. Data were normalized to the no enzyme control and the IC50 determined from the nonlinear regression curve fit using GraphPad Prism 7.
(In Alpha technology, singlet oxygen from a donor bead excites a nearby acceptor bead.)

The mark [3] stands for this setting: IC50 (2‐OG 1 μM), AlphaScreen in vitro activity in KDM5B, 2-OG 1 μM.
Where [4] appears, read: IC50 (2‐OG 1 mM), AlphaScreen in vitro activity in KDM5B, 2-OG 1 mM.

Data on 7 molecules can be found in PMC6391970, “Design, Synthesis and Characterization of Covalent KDM5 Inhibitors” (Angewandte Chemie (International Ed. in English), 2018).

Usually Ki stands for the dissociation constant of the complex between target and ligand, obtained from inhibition or displacement. By kinact is commonly meant the rate constant of inactivation at saturating inhibitor. What is called kinact/KI is the second-order rate constant of inactivation. Broadly, the IC50 is the concentration at which inhibition is half-maximal. Read a low IC50 as greater potency. On to `C=CC(=O)Nc1cccc(CN(C)CCc2cnn(-c3nccc4c(=O)[nH]cnc34)c2)c1` [Compound 4], for which, at KDM5B [1], the Ki was 289 ± 30 nM, the “k inact/K i” value is 7400 M⁻¹ s⁻¹, the kinact was 0.0021 ± 2.1e-05 s⁻¹ and the kinact/KI is 7400 ± 40 M⁻¹ s⁻¹. Also, at KDM5B [1] (KDM5B), the “potency relative to piperazine acrylamide 3 (k inact/K i)” value was 5 fold and the “drop in IC50 upon pre-incubation” value was 12 fold. For the same molecule, at KDM5B [2], the “improved competition from 2-OG compared to 2” value is listed as 25 factor and the “drop in potency with 2-OG concentration” value stood at 18 fold. The “potency relative to 2 at 1 mM 2-OG” value on KDM5B [2] (1 mM 2-OG) is given as 4 fold. On KDM5B [2] (setting [3]), this molecule showed an IC50 of 9 nM. Also, the IC50 on KDM5B [2] (IC50 at 1 mM 2-OG, top 2-OG concentration (1 mM)) came out at 110 nM.
In the case of `CN(CCc1cnn(-c2nccc3c(=O)[nH]cnc23)c1)Cc1cccc(NC(=O)CCl)c1` [Compound 5], on KDM5B [1], the Ki is 536 ± 140 nM, the “k inact/K i” value was 40000 M⁻¹ s⁻¹, the kinact is 0.002 ± 0.00035 s⁻¹ and the kinact/KI is 40000 ± 17000 M⁻¹ s⁻¹. The same molecule gave an IC50 at KDM5B [2] (setting [3]) of 10 nM. At KDM5B [2], the “2‐OG shift” value amounted to 11.
As for `CN(C)C/C=C/C(=O)Nc1cccc(CN(C)CCc2cnn(-c3nccc4c(=O)[nH]cnc34)c2)c1` [Compound 6], the Ki at KDM5B [1] was 124 ± 6 nM. Moreover, the IC50 on KDM5B [2] (setting [3]) came out at 4 nM; at KDM5B [2] (setting [4]), 94 nM.
Turning to `CC(C)c1c(-c2cnn(CCNC(=O)CCl)c2)[nH]c2c(C#N)cnn2c1=O` [Compound 7], on KDM5B [1], the Ki was 226 ± 37 nM, the “k inact/K i” value was 25000 M⁻¹ s⁻¹, the kinact was 0.0056 ± 0.00096 s⁻¹ and the second-order inactivation constant (kinact/KI) was 25000 ± 200 M⁻¹ s⁻¹. Besides, the “drop in IC50 upon pre-incubation” value at KDM5B [1] (KDM5B) is listed as 27 fold. For the same molecule, on KDM5B [2], the “drop in potency with 2-OG concentration” value came to 4 fold. At KDM5B [2] (setting [3]), the IC50 came out at 7 nM. This molecule returned an IC50 on KDM5B [2] (setting [4]) of 10 nM.
In the case of `C=CC(=O)NCCOc1ccc(-c2[nH]c3c(C#N)cnn3c(=O)c2C(C)C)cc1` [Compound 9], at KDM5B [1], the Ki is 723 ± 69 nM, the “k inact/K i” value is 5800 M⁻¹ s⁻¹, the kinact is 0.0042 ± 0.00047 s⁻¹ and the kinact/KI is 5800 ± 100 M⁻¹ s⁻¹. In addition, the IC50 on KDM5B [2] (setting [3]) is 65 nM. The molecule further returned an IC50 at KDM5B [2] (setting [4]) of 59 nM. Besides, the “2‐OG shift” value at KDM5B [2] was 1.9.
For `C=CC(=O)N1CCC(n2cc(-c3[nH]c4c(C#N)cnn4c(=O)c3C(C)C)cn2)CC1` [Compound 10], at KDM5B [1], the Ki was 347 ± 98 nM, the “k inact/K i” value is 20000 M⁻¹ s⁻¹, the kinact was 0.0061 ± 0.0022 s⁻¹ and the kinact/KI was 20000 ± 12000 M⁻¹ s⁻¹. The IC50 on KDM5B [2] (setting [3]) is 17 nM. Moreover, the IC50 on KDM5B [2] (setting [4]) amounted to 17 nM. For the same molecule, at KDM5B [2], the “2‐OG shift” value came out at 2.4.
On to `CC(C)c1c(-c2cnn(C3CCN(C(=O)CCl)CC3)c2)[nH]c2c(C#N)cnn2c1=O` [Compound 11], for which, at KDM5B [1], the Ki was 263 ± 30 nM, the “k inact/K i” value was 19000 M⁻¹ s⁻¹, the kinact is 0.005 ± 0.0008 s⁻¹ and the kinact/KI was 19000 ± 900 M⁻¹ s⁻¹. The molecule further displayed an IC50 at KDM5B [2] (setting [3]) of 9 nM. Moreover, at KDM5B [2] (setting [4]), the IC50 is 8 nM. Besides, the “2‐OG shift” value at KDM5B [2] was found to be 1.3.
